Marks after values point to notes of the source that are not given here. Blank lines part the entries; values can stand above or below the compound they belong to.
What was measured:
[1] = Dynamic vapor sorption (DVS) scan; type: physicochemical; details: for water absorption (DVS scan): at 90% RH
Source text: The purity of the Form 13 sample was 98.8%; the KF of an undried Form 13 sample was 35.7%.

[2] = Slurry experiments in various solvents (polymorph screen); type: physicochemical
Experimental: Slurry experiments in various solvents were performed. Approximately 30-80 mg of the starting solid (a non-stoichiometric hydrate of Form 1 having between […] and about 20% by weight water) was slurried in 39 different solvents (pure and binary solvents; the ratio of organic solvent/water (V/V) was […]) at RT and 50° C. for 5 days. Three solvates, one non-stoichiometric hydrate, and eleven non-solvated forms were identified. […] XRD of both wet and dry samples were scanned (FIG. 12A (dry sample)).
The slurry experiments identified 3 solvated forms from wet samples (Solvates 1, 2, and 3); 2 non-stoichiometric hydrates of Form 1 (Forms 12 and 13); and 11 non-solvated forms (Forms 1-11). In some instances, similar XRD scans with minor differences were obtained. These were considered to be part of the same class (e.g., the same form). For example, XRD scans of Form 2 and Form 2* were similar and were considered to belong to the same class. The solvated forms were obtained from wet sample analysis; after drying, the sample indicated a different XRD.
Solvate 1 was obtained from acetone at RT, and after drying, a low crystallinity solid was generated. Solvate 2 was obtained from acetone (at RT) and acetone/water (at RT), and after drying, Form 4** was generated. Solvate 3 was obtained from EtOH/water at RT, and after drying, Form 2 was generated.

[3] = Competitive slurry experiments between polymorph forms (thermodynamic stability); type: physicochemical; details: slurried 3-5 days, XRD
Experimental: In order to find out the thermodynamic stability between the different forms, several competitive slurry experiments were carried out. Form 1, Form 2, Form 2*, Form 3, Form 4, Form 4*, Form 4**, Form 5, Form 7, Form 8, Form 9, Form 10, Form 11, Form 11*, and Form 13 (10 mg for each) was mixed and slurried in 2 mL of solvent at both RT and 50° C. The solids were slurried for 3-5 days and then analyzed by XRD.
In order to find out the thermodynamic stability between Form 13 and Form 9, several competitive slurry experiments were carried out. 15 mg of Form 1, Form 9 and Form 13 solid were mixed in 1 mL of toluene, IPAc, and n-butyl acetate, and slurried for 3 days at RT and 50° C.
The residual solid was analyzed by XRD.

IL-6 = experiment: Inhibition of IL-6 in LPS-stimulated human monocyte cells (THP-1), HTRF; type: cell-based; details: THP-1 cells; for EC50: Homo sapiens, LPS 500 ng/mL, IL-6 by HTRF
Experimental: Human Monocyte Cell Culture: A human monocyte cell line (THP-1 cells; Catalog #TIB-202, ATCC, Manassas, Va.) was cultured in Roswell Park Memorial Institute (RPMI) 1640 Medium (Catalog #21870-100, Buffalo, N.Y.) with 1% L-glutamine, 1% HEPES, 1% sodium pyruvate, 2% sodium bicarbonate supplemented with 100 units/mL penicillin, 50 μg/mL streptomycin, 2-mercaptoethanol (0.05 mM) [basal medium] and 10% fetal bovine serum (Catalog #16140089, Life Technologies, Carlsbad, Calif.) at 37° C. and 5% CO2.
Compound Screening: THP-1 cells were cultured in basal media with 1% FBS for 24 hours before the start of the assay. Each compound of Formula (I) was dissolved in DMSO as a 10 mM stock and used to prepare compound source plates. Serial dilution (1:3, 10-point dose-response curves starting from 10 μM) and compound transfer was performed using the ECHO 550 (Labcyte, Sunnyvale, Calif.) into 384-well white low volume assay plates (Greiner Bio-One) with appropriate DMSO backfill for a final DMSO concentration of 0.1%. THP-1 cells were plated at 5000 cells/well in the 384-well plates and incubated at 37° C. for 2 h. 500 ng/mL of LPS was added after 2 hours and cells were incubated for another 22 hours at 37° C. Plates were spun in a centrifuge for 1 minute at 10,000 rpm and a mixture of anti-IL-6 XL665, and anti-IL-6 Cryptate diluted in reconstitution buffer (Cisbio Inc.) was added to each well. Following incubation for 3 hrs at room temperature, homogeneous time-resolved fluorescence (HTRF) was measured using the Envision (Perkin Elmer) at 665 nm and […]. The ratio of fluorescence at 665 nm to 620 nm was used as a readout for IL-6 quantification. All samples were processed in duplicate. Readings were normalized to DMSO treated cells and normalized activities were utilized for EC50 calculations using the dose-response log (inhibitor) vs. response -variable slope (four parameters) nonlinear regression feature available in GraphPad Prism 5.0 (or Dotmatics). For EC50 of >10 μM, the percent inhibition at 10 μM is provided.

[4] = slurry in Acetonitrile/water (5% water), 50° C.
[5] = slurry in DCM/water (5% water), 50° C.
[6] = slurry in DCM/water (5% water), RT
[7] = slurry in Heptane/water (5% water), 50° C.
[8] = slurry in Heptane/water (5% water), RT
[9] = slurry in IPAc/water (5% water), 50° C.
[10] = slurry in MA/water (5% water), RT
[11] = slurry in MIBK/water (5% water), 50° C.
[12] = slurry in MeOH/water (5% water), 50° C.
[13] = slurry in MtBE/water (5% water), 50° C.
[14] = slurry in Toluene/water (5% water), 50° C.
[15] = slurry in Toluene/water (5% water), RT
[16] = slurry in n-Butanol/water (5% water), 50° C.
[17] = slurry in n-Butanol/water (5% water), RT
[18] = slurry in n-Butyl acetate/water (5% water), 50° C.
[19] = slurry in n-Butyl acetate/water (5% water), RT
[20] = slurry in Acetone/water (5% water), RT
[21] = slurry in Acetonitrile/water (5% water), RT
[22] = slurry in EA/water (5% water), RT
[23] = slurry in IPAc/water (5% water), RT
[24] = slurry in MA/water (5% water), 50° C.
[25] = slurry in MIBK/water (5% water), RT
[26] = slurry in MeOH/water (5% water), RT
[27] = slurry in MtBE/water (5% water), RT
[28] = slurry in EtOH/water (5% water), RT

Compound: O=C(Nc1cncc(-c2ccc3[nH]nc(-c4nc5c(-c6cccc(F)c6)cncc5[nH]4)c3c2)c1)C1CCCCC1 [Compound 94]
EC50 (IL-6): 19 nM

Compound: CC(C)(C)CC(=O)Nc1cncc(-c2ccc3[nH]nc(-c4nc5ccncc5[nH]4)c3c2)c1 [Compound 280]
EC50 (IL-6): 731 nM

Compound: CN1CCN(c2cncc3[nH]c(-c4n[nH]c5ccc(-c6cccnc6)cc45)nc23)CC1 [4*]
thermodynamic stability between forms (competitive slurry) ([3]; EA at RT and 50° C.): most stable
EC50 (IL-6): 74 nM

Compound: CN1CCN(c2cncc3[nH]c(-c4n[nH]c5ccc(-c6cncc(NC(=O)C7CC7)c6)cc45)nc23)CC1 [Compound 260]
EC50 (IL-6): 295 nM

Compound: Cc1ccncc1-c1ccc2[nH]nc(-c3nc4c(N5CCCCC5)cncc4[nH]3)c2c1 [Compound 202]
EC50 (IL-6): 1220 nM

Compound: CC(C)C(=O)Nc1cncc(-c2ccc3[nH]nc(-c4nc5c(N6CCN(C)CC6)cncc5[nH]4)c3c2)c1 [Compound 2]
EC50 (IL-6): 290 nM

Compound: Nc1cncc(-c2ccc3[nH]nc(-c4nc5ccncc5[nH]4)c3c2)c1 [Compound 268]
EC50 (IL-6): > 10000 nM
percent inhibition of IL-6 at 10 μM (IL-6; LPS-stimulated, dose-response starting from 10 μM): (27.6%)

Compound: O=C(Nc1cncc(-c2ccc3[nH]nc(-c4nc5c(-c6ccoc6)cncc5[nH]4)c3c2)c1)C1CCCCC1 [Compound 333]
EC50 (IL-6): 103 nM

Compound: O=C(Nc1cncc(-c2ccc3[nH]nc(-c4nc5c(-c6ccc(F)cc6)cncc5[nH]4)c3c2)c1)C1CCC1 [Compound 111]
EC50 (IL-6): 50 nM

Compound: CN1CCN(c2cncc(-c3ccc4[nH]nc(-c5nc6ccncc6[nH]5)c4c3)c2)CC1 [Compound 7]
EC50 (IL-6): 2430 nM

Further lines, results first:

change of form before and after the DVS scan [1]: did not change its form
water absorption (DVS scan) [1]: 0.8%
Compound: CC(C)CC(=O)Nc1cncc(-c2ccc3[nH]nc(-c4nc5c(-c6cccc(F)c6)cncc5[nH]4)c3c2)c1 [Form 9]

Form, Dry [2, 4]: Form 13
Form, Wet [2, 4]: Form 13
Form, Dry ([2]; slurry in DCM, 50° C.): Form 13
Form, Wet ([2]; slurry in DCM, 50° C.): Form 13
Form, Dry [2, 5]: Form 1
Form, Wet [2, 5]: Form 13
Form, Dry [2, 6]: Form 1
Form, Wet [2, 6]: Form 13
Form, Dry ([2]; slurry in Heptane, 50° C.): Form 13
Form, Wet ([2]; slurry in Heptane, 50° C.): Form 13
Form, Dry [2, 7]: Form 1
Form, Wet [2, 7]: Form 13
Form, Dry [2, 8]: Form 12
Form, Wet [2, 8]: Form 13
Form, Dry [2, 9]: Form 13
Form, Wet [2, 9]: Form 13
Form, Dry [2, 10]: Form 1
Form, Wet [2, 10]: Form 13
Form, Dry [2, 11]: Form 1
Form, Wet [2, 11]: Form 13
Form, Dry ([2]; slurry in MeOH, RT): Form 1
Form, Wet ([2]; slurry in MeOH, RT): Form 13
Form, Dry [2, 12]: Form 13
Form, Wet [2, 12]: Form 13
Form, Dry [2, 13]: Form 13
Form, Wet [2, 13]: Form 13
Form, Dry [2, 14]: Form 13
Form, Wet [2, 14]: Form 13
Form, Dry [2, 15]: Form 1
Form, Wet [2, 15]: Form 13
Form, Dry [2, 16]: Form 1
Form, Wet [2, 16]: Form 13
Form, Dry [2, 17]: Form 13
Form, Wet [2, 17]: Form 13
Form, Dry [2, 18]: Form 1
Form, Wet [2, 18]: Form 13
Form, Dry [2, 19]: Form 12
Form, Wet [2, 19]: Form 13
Form, Dry ([2]; slurry in water, 50° C.): Form 13
Form, Wet ([2]; slurry in water, 50° C.): Form 13
Form, Dry ([2]; slurry in water, RT): Form 1
Form, Wet ([2]; slurry in water, RT): Form 13
water absorption (DVS scan) [1]: 17%
thermodynamic stability between forms (competitive slurry) ([3]; water at RT and 50° C.): most stable
Compound: CC(C)CC(=O)Nc1cncc(-c2ccc3[nH]nc(-c4nc5c(-c6cccc(F)c6)cncc5[nH]4)c3c2)c1 [Form 13]

Form, Dry ([2]; slurry in Acetone, RT): Low
Form, Wet ([2]; slurry in Acetone, RT): Solvate 1
Compound: CC(C)CC(=O)Nc1cncc(-c2ccc3[nH]nc(-c4nc5c(-c6cccc(F)c6)cncc5[nH]4)c3c2)c1 [Solvate 1]

Form, Dry ([2]; slurry in Acetone, 50° C.): Form 4**
Form, Wet ([2]; slurry in Acetone, 50° C.): Solvate 2
Form, Dry [2, 20]: Form 4**
Form, Wet [2, 20]: Solvate 2
Compound: CC(C)CC(=O)Nc1cncc(-c2ccc3[nH]nc(-c4nc5c(-c6cccc(F)c6)cncc5[nH]4)c3c2)c1 [Solvate 2]

Form, Dry [2, 21]: Form 1
Form, Wet [2, 21]: Form 12
Form, Dry [2, 22]: Form 1
Form, Wet [2, 22]: Form 12
Form, Dry [2, 8]: Form 12
Form, Wet [2, 8]: Form 13
Form, Dry [2, 23]: Form 1
Form, Wet [2, 23]: Form 12
Form, Dry [2, 24]: Form 4
Form, Wet [2, 24]: Form 12
Form, Dry [2, 25]: Form 1
Form, Wet [2, 25]: Form 12
Form, Dry [2, 26]: Form 1
Form, Wet [2, 26]: Form 12
Form, Dry [2, 27]: Form 1
Form, Wet [2, 27]: Form 12
Form, Dry [2, 19]: Form 12
Form, Wet [2, 19]: Form 13
Compound: CC(C)CC(=O)Nc1cncc(-c2ccc3[nH]nc(-c4nc5c(-c6cccc(F)c6)cncc5[nH]4)c3c2)c1 [Form 12]

EC50 (IL-6): 134 nM
Compound: CN(C)Cc1cncc(-c2ccc3[nH]nc(-c4nc5c(-c6cncc(F)c6)cncc5[nH]4)c3c2)c1 [Compound 16]

EC50 (IL-6): 1180 nM
Compound: CN(C)Cc1cncc(-c2ccc3[nH]nc(-c4nc5c(-c6ccccn6)cncc5[nH]4)c3c2)c1 [Compound 186]

EC50 (IL-6): 216 nM
Compound: c1cc(-c2cncc3[nH]c(-c4n[nH]c5ccc(-c6cncc(CNCC7CCCC7)c6)cc45)nc23)cs1 [Compound 311]

EC50 (IL-6): 125 nM
Compound: c1cncc(-c2ccc3[nH]nc(-c4nc5c(-c6cccnc6)cncc5[nH]4)c3c2)c1 [Compound 136]

EC50 (IL-6): 697 nM
Compound: O=C(Cc1ccccc1)Nc1cncc(-c2ccc3[nH]nc(-c4nc5c(-c6ccoc6)cncc5[nH]4)c3c2)c1 [Compound 321]

Form, Dry [2, 28]: Form 2
Form, Wet [2, 28]: Solvate 3
Compound: CC(C)CC(=O)Nc1cncc(-c2ccc3[nH]nc(-c4nc5c(-c6cccc(F)c6)cncc5[nH]4)c3c2)c1 [Solvate 3]

EC50 (IL-6): 53 nM
Compound: CC(C)(C)C(=O)Nc1cncc(-c2ccc3[nH]nc(-c4nc5c(-c6ccc(F)cc6)cncc5[nH]4)c3c2)c1 [Compound 102]

water absorption (DVS scan) [1]: 17%
Compound: CC(C)CC(=O)Nc1cncc(-c2ccc3[nH]nc(-c4nc5c(-c6cccc(F)c6)cncc5[nH]4)c3c2)c1 [Form 1]

EC50 (IL-6): 15 nM
Compound: CCC(=O)Nc1cncc(-c2ccc3[nH]nc(-c4nc5c(-c6cncc(F)c6)cncc5[nH]4)c3c2)c1 [Compound 20]
